From ChEMBL document CHEMBL1201862, “PubChem BioAssay data set” (2004)
Values belong to the molecule of their own block, whether it stands above or below them. Calls of active or inactive are those of the source.

Experiments:
[1] = molecular target: Sphingosine 1-phosphate receptor 3 (Homo sapiens, UniProt Q99500); assay: Dose response cell-based high throughput screening assay for antagonists of the Sphingosine 1-Phosphate Receptor 3 (S1P3). [Related pubchem assays: 1429, 485 ]; format: functional
[2] = molecular target: 5-hydroxytryptamine receptor 1E (Homo sapiens, UniProt P28566); assay: Counterscreen assay for S1P3 antagonists: Dose response cell-based high throughput screening assay to identify antagonists of the 5-Hydroxytryptamine Receptor Subtype 1E (5HT1E). [Related pubchem assays: 1429, 485 ]; format: functional
[3] = molecular target: T1, Sentrin-specific protease 7 (Homo sapiens, UniProt Q9BQF6); format: functional;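 further: Luminescence-based dose-response confirmation of ultra-high-throughput screening hits, measuring inhibition of SENP7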
T1 sequence (Q9BQF6 whole entry): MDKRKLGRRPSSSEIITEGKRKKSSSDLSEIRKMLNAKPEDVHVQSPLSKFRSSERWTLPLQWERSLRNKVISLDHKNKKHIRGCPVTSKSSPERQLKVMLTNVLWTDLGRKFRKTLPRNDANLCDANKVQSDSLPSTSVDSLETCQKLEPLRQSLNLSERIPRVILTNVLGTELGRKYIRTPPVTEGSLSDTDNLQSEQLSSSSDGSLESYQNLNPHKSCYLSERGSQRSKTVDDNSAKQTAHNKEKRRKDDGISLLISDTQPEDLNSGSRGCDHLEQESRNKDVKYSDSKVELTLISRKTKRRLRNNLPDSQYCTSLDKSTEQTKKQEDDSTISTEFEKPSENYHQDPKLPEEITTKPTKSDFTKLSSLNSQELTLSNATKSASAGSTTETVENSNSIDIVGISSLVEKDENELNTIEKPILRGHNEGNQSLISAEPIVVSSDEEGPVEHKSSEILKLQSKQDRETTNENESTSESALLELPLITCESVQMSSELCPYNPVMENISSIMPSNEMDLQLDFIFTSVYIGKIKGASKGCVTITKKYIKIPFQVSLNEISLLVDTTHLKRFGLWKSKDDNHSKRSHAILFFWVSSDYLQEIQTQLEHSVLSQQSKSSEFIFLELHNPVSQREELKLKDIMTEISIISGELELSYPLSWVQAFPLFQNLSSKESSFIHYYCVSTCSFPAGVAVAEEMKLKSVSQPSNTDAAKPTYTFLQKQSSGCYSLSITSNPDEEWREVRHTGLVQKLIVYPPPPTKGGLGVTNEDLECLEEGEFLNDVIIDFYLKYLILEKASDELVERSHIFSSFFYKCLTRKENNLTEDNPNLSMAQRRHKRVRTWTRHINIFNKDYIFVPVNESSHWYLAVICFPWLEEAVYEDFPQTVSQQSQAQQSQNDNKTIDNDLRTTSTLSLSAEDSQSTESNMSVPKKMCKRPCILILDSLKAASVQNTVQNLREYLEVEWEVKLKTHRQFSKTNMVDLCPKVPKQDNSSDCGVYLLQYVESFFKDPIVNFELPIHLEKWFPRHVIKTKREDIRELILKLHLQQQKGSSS

[4] = molecular target: T2, Bcl-2-like protein 10 (Homo sapiens, UniProt Q9HD36); assay: displacers of TR3 peptide from Bcl-B, primary screen, selectivity assay for Bfl-1 inhibitor project, biochemical, fluorescence polarization, FITC-TR3 peptide (AID 748);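 further: fluorescence polarization from a fluorescein-labelled TR3 peptide binding purified Bcl-B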
T2 sequence (Q9HD36 whole entry): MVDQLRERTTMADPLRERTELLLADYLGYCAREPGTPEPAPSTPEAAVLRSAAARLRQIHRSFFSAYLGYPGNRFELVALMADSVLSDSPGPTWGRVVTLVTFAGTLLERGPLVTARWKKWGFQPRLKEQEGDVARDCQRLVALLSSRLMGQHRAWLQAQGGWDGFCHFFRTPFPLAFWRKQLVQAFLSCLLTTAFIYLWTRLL

[5] = molecular target: T3, Caspase-3 (Homo sapiens, UniProt P42574); format: functional;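 further: Dose-response selectivity test against caspase-3 for candidate inhibitors of sentrin-specific proteases (SENPs)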
T3 sequence (P42574 whole entry): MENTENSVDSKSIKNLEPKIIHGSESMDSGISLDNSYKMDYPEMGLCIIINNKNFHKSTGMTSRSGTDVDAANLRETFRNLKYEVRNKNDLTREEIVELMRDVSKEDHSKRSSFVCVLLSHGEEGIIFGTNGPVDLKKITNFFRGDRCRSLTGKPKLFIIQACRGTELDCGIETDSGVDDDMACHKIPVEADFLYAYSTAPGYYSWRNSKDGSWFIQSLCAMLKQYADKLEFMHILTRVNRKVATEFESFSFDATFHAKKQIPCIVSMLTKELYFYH

[6] = molecular target: T4, Estrogen receptor beta (Homo sapiens, UniProt Q92731); assay: ERβ–SRC-3 coactivator interaction inhibitors, confirmation, orthogonal assay, biochemical, ELISA, streptavidin-HRP readout (AID 1060)
[7] = THP-1 cell cytotoxicity, dose response, cytotoxicity control for Vif-APOBEC3G degradation inhibitor project, THP-1 cells (AID 1117359); format: functional; conditions: Human immunodeficiency virus 1, THP-1
[8] = molecular target: T5, Sentrin-specific protease 8 (Homo sapiens, UniProt Q96LD8); format: functional;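 further: luminescence read-out of SENP8 inhibition, dose-response confirmation following an ultra-high-throughput screen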
T5 sequence (Q96LD8 whole entry): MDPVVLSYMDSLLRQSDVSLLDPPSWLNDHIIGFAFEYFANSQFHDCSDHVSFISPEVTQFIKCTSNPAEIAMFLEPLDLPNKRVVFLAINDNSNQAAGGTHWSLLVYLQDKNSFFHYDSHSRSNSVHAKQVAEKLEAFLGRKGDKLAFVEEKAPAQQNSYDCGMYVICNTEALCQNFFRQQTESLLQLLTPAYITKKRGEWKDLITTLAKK

[9] = molecular target: T6, Sentrin-specific protease 6 (Homo sapiens, UniProt Q9GZR1); format: functional;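 further: Luminescence-based dose-response confirmatory assay of SENP6 inhibition, following up an ultra-high-throughput screen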
T6 sequence (Q9GZR1 whole entry): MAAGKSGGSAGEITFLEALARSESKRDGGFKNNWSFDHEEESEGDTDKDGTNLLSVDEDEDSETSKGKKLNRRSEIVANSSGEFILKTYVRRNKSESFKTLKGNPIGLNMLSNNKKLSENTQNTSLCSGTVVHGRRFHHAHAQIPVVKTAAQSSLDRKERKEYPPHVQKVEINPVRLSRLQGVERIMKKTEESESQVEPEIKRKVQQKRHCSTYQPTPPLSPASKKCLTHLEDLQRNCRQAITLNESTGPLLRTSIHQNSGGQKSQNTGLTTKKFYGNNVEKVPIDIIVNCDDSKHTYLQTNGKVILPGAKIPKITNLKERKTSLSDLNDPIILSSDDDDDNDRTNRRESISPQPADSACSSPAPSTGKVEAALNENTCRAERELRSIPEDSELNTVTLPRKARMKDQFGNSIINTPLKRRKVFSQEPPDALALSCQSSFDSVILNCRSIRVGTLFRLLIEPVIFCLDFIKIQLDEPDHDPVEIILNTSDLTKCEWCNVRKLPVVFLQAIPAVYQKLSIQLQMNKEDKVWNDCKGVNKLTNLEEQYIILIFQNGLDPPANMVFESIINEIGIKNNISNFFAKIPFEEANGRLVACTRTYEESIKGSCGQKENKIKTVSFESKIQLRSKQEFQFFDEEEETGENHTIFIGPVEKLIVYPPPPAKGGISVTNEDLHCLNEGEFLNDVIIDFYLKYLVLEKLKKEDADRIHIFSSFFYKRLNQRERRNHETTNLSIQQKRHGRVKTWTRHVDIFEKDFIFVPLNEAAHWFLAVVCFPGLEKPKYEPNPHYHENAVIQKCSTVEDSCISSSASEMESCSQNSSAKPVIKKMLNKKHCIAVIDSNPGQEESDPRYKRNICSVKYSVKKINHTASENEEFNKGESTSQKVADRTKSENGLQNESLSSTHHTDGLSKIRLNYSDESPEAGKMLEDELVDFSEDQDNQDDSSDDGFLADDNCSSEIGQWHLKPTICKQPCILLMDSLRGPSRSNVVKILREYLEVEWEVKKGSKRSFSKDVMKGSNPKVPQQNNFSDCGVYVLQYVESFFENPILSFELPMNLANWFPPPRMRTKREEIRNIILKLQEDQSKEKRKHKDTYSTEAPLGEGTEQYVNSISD

[10] = molecular target: Glutathione-S-transferase (Schistosoma japonicum, UniProt Q26513); assay: biotin-GST/anti-GST TR-FRET signal inhibitors, dose response, artefact control for Vif-APOBEC3G degradation inhibitor project, biochemical (AID 1117362); format: functional
[11] = molecular target: Genome polyprotein (dengue virus type 2, UniProt P29990); assay: Dengue-2 NS5 methyltransferase inhibitors, primary screen, biochemical, confirmation dose response (AID 588689); format: functional
[12] = system: Vero; assay: Vero cell cytotoxicity, cytotoxicity control for flavivirus capping enzyme inhibitors (AID 588742); format: functional; conditions: Chlorocebus sabaeus
[13] = molecular target: T4, Estrogen receptor beta
[14] = molecular target: Sphingosine 1-phosphate receptor 4 (Homo sapiens, UniProt O95977); assay: Fluorescence dose response cell-based high throughput screening assay for antagonists of the Sphingosine 1-Phosphate Receptor 4 (S1P4). [Related pubchem assays: 1524 (Confirmation in triplicates.), 1510 (Primary screen.)]; format: functional
[15] = molecular target: Sphingosine 1-phosphate receptor 1 (Homo sapiens, UniProt P21453); format: functional;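 further: Tango beta-arrestin reporter U2OS cells stimulated with S1P near its EC80; inhibitor potency meaning antagonism of receptor activation by the natural agonist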
[16] = C. albicans growth with fluconazole, confirmation, fluorescence, retest (AID 2467); format: functional, cell-based
[17] = cytotoxicity in KRAS-transformed pancreatic duct cells, primary screen, cell-based, fluorescence, HTS (AID 431); format: functional; conditions: Homo sapiens;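 further: cell line used: HPDE-C7K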
[18] = cytotoxicity in HPDE-C7 cells, cell-based, fluorescence, HTS (AID 430); format: functional; conditions: Homo sapiens
[19] = NIH-3T3 fibroblast cytotoxicity, dose response, cytotoxicity control, cell-based, fluorescence, Alamar Blue, secondary assay (AID 2327); format: functional;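 further: NIH-3T3 mouse fibroblasts cultured with fluconazole at 8 µg/mL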
[20] = cytotoxicity toward NIH3T3 fibroblasts, dose response, counter-screen, cell-based, ATP luminescence, mouse fibroblasts (AID 2010); format: functional;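 further: cells exposed to compound for about 90 hours before reading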
[21] = inhibitors of intracellular T. cruzi replication, confirmation, NIH3T3 host cells, beta-gal luminescence (AID 2044); format: functional, cell-based;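 further: intracellular parasites grown in NIH/3T3 mouse fibroblasts as host cells; luminescent beta-galactosidase reporter signal from transgenic T. cruzi replicating inside host cells; inhibitors lower the luminescence signal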
[22] = inhibitors of Bluetongue virus cytopathic effect, confirmation, arbovirus, BSR cells (AID 1250); format: functional;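 further: protection from viral cytopathic effect measured as cell viability by ATP luminescence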
[23] = molecular target: Sphingosine 1-phosphate receptor 2 (Homo sapiens, UniProt O95136); assay: Dose Response Cell Based Assay for Agonists of the S1P2 Receptor of Purchased Analogues. [Related pubchem assays: 729, 843, 854, 736 ]; format: functional
[24] = molecular target: Neuropeptide Y receptor type 1 (Homo sapiens, UniProt P25929); format: functional;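 further: HEK293 cells with a CNG channel challenged with NPY then isoproterenol; potency as antagonist that reverses NPY suppression of cAMP signal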
[25] = molecular target: Neuropeptide Y receptor type 2 (Homo sapiens, UniProt P49146); format: functional, cell-based;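 further: HEK293 cells expressing the receptor and a CNG channel; stimulus was NPY near EC95 followed by isoproterenol to raise cAMP; antagonist potency measured as restoring cAMP signal that NPY suppresses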
[26] = molecular target: T7, Estrogen receptor (Homo sapiens, UniProt P03372); assay: potentiators of ERα–SRC-1 coactivator binding, dose response, biochemical, TR-FRET, ERα LBD (AID 737)
T7 sequence (P03372 whole entry): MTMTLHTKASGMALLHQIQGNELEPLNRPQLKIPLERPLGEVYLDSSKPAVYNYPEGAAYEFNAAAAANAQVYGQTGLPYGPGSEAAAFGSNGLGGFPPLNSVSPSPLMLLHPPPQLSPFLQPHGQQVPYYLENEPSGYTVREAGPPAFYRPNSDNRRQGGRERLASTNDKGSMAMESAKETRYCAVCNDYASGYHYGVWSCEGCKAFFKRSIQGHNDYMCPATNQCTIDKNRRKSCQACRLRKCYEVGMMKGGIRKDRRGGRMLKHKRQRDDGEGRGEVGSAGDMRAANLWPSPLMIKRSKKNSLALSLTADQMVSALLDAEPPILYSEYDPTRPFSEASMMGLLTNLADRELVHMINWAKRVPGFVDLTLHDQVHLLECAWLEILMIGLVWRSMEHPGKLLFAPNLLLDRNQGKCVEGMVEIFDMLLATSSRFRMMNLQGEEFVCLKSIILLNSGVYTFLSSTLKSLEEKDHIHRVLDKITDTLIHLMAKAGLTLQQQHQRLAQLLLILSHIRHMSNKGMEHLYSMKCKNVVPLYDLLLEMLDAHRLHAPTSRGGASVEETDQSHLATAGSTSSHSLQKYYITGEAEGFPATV

T4 sequence (Q92731 whole entry): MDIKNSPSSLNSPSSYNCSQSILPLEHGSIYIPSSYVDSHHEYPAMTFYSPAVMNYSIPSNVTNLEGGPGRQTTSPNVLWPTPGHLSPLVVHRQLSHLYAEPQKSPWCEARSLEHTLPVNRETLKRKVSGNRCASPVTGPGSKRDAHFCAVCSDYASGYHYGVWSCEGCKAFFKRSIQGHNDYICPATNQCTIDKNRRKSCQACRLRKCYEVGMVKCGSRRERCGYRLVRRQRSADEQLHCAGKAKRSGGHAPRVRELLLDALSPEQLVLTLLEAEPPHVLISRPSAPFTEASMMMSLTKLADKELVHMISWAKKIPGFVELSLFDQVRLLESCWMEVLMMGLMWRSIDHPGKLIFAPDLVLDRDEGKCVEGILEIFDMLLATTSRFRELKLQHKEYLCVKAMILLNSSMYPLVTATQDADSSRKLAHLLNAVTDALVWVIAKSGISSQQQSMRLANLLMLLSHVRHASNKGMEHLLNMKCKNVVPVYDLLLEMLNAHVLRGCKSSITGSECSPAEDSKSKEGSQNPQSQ
Sphingosine 1-phosphate receptor 2, sequence (O95136 whole entry): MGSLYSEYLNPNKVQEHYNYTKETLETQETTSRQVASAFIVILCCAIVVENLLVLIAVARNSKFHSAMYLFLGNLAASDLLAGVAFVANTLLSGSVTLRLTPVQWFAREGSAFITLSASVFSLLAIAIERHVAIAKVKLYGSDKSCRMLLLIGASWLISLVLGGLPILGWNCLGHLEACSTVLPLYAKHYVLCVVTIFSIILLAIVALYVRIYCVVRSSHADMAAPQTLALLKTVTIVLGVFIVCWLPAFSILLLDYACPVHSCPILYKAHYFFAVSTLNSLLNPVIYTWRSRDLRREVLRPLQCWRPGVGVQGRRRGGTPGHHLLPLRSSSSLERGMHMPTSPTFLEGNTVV
Sphingosine 1-phosphate receptor 4, sequence (O95977 whole entry): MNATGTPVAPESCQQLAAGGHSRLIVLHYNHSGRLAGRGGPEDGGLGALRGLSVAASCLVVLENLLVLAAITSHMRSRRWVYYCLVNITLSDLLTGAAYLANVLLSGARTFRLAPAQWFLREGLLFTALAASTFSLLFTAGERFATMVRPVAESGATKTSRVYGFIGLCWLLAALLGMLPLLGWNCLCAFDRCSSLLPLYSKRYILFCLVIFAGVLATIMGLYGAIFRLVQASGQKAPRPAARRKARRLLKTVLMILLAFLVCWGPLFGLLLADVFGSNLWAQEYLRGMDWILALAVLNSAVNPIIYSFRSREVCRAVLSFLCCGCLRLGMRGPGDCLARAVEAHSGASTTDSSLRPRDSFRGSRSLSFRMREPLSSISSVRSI
Sphingosine 1-phosphate receptor 1, sequence (P21453 whole entry): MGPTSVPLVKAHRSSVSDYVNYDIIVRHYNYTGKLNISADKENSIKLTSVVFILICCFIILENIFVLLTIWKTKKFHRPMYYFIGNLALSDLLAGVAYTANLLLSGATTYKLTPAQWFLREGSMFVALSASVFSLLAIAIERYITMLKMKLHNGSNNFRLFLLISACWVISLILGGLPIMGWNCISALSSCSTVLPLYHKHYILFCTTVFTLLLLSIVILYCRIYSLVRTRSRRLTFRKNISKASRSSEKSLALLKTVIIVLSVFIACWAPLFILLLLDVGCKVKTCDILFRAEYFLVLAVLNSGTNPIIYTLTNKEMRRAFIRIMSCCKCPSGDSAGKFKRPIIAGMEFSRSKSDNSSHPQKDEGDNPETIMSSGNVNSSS
Neuropeptide Y receptor type 1, sequence (P25929 whole entry): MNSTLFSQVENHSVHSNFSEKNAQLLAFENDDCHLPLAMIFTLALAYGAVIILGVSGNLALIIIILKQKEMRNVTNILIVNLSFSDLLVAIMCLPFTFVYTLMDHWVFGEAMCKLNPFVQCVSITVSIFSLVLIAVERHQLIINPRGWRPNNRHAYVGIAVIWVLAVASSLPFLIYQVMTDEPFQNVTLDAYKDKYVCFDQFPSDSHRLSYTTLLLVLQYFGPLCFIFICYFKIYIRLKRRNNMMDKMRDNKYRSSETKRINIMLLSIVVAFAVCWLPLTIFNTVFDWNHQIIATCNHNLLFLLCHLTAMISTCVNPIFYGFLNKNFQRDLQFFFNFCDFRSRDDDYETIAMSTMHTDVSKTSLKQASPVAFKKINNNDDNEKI
Genome polyprotein, sequence (P29990 2492-3391 limits assumed): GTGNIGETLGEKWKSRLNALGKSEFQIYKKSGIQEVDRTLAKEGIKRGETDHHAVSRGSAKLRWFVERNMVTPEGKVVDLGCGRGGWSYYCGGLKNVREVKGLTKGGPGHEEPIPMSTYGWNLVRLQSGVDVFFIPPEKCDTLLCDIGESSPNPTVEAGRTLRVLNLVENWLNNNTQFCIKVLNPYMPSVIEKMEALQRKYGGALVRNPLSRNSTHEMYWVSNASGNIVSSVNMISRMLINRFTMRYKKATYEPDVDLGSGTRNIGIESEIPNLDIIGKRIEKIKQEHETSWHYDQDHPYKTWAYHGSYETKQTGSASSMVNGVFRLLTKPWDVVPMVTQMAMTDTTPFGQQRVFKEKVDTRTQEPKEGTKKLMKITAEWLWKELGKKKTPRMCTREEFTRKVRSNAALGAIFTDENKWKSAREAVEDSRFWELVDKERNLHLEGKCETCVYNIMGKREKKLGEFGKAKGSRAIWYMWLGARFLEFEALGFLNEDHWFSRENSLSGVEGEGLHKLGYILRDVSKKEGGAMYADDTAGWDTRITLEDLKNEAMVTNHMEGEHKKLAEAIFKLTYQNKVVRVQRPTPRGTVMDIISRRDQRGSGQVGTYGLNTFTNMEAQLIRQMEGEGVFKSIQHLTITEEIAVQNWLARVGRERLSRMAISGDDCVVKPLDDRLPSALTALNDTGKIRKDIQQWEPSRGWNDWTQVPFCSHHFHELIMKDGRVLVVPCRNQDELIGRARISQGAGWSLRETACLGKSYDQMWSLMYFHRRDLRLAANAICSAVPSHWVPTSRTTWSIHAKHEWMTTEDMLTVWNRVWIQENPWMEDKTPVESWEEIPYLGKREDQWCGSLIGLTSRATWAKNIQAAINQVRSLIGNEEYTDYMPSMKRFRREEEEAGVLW
Glutathione-S-transferase, sequence (Q26513 whole entry): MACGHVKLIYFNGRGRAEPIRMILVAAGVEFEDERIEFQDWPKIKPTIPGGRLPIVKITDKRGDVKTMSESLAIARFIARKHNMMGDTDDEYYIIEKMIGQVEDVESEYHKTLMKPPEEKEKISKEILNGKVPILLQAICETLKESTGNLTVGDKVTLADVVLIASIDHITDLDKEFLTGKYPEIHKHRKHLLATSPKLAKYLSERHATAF
Neuropeptide Y receptor type 2, sequence (P49146 whole entry, the tested form may be a part): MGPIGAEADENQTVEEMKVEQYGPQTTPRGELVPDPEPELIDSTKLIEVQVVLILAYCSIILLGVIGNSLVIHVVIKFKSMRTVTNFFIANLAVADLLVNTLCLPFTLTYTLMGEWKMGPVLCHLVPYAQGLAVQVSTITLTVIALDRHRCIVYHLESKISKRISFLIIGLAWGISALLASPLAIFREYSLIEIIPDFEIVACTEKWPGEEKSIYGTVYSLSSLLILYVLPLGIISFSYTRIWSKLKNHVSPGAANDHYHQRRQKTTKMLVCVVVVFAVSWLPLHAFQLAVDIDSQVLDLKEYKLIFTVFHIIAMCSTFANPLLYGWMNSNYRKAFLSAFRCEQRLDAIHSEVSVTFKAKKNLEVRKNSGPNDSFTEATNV
Sphingosine 1-phosphate receptor 3, sequence (Q99500 whole entry): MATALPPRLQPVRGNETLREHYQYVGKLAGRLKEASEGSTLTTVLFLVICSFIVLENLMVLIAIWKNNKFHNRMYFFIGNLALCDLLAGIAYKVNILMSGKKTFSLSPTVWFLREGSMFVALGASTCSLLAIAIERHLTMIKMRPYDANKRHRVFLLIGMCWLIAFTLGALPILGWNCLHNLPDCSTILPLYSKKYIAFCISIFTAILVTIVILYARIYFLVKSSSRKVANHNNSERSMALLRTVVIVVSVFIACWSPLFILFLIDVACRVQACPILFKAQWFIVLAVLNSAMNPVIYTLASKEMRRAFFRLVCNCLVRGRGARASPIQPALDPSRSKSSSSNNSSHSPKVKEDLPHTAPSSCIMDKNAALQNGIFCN
5-hydroxytryptamine receptor 1E, sequence (P28566 whole entry): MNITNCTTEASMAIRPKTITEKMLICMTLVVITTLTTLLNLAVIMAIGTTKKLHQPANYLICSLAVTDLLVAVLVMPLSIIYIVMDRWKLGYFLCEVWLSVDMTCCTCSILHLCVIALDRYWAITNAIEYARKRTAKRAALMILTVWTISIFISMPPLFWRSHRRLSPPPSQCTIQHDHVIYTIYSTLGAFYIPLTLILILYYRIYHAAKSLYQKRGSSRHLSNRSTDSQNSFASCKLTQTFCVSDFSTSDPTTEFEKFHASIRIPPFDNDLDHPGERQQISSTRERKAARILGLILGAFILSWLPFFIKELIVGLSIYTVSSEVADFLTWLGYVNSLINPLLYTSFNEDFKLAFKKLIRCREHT

EC50 [23]: > 30 µM (not active)
SMILES: Cc1noc(C)c1C(=O)OCC(=O)c1cc(C)n(Cc2ccccc2)c1C

IC50 [4]: > 100 µM (inactive)
EC50 [26]: 6.52 µM (active)
SMILES: Cc1ccc(-c2nnc(S)n2/N=C/C=C/c2ccccc2[N+](=O)[O-])cc1

Continued, molecule first:

SMILES: CCCn1nc2ccccc2c1P(=O)(N1CCOCC1)N1CCOCC1
IC50 [1]: > 50 µM (not active)
IC50 [2]: > 50 µM (not active)

SMILES: Cc1ccc2c(c1)c(=O)c1c3n2CCN(C(=O)CCl)C3CC1 (configuration not stated)
IC50 [3]: 23.9 µM (active)
IC50 [4]: 11.4 µM (active)
IC50 [5]: 14 µM (active)
IC50 [6]: 0.348 µM (not active)
CC50 [7]: 10.9 µM (active)
IC50 [8]: 14.2 µM (active)
IC50 [9]: 8.69 µM (active)
IC50 [10]: > 100 µM (active)
IC50 [11]: > 100 µM (active)
CC50 [12]: 13.1 µM (active)
IC50 [13]: 8.75 µM (active)

SMILES: CS(=O)(=O)c1nc(-c2cccs2)cc(C(F)(F)F)n1
IC50 [14]: 0.989 µM (active)
IC50 [15]: 22.9 µM (not active)
EC50 [16]: > 38 µM (not active)
EC50 [17]: 2.73 µM (active)
EC50 [18]: 2.66 µM (active)
EC50 [19]: 4.62 µM (inconclusive)
EC50 [20]: 3.19 µM (active)
EC50 [21]: 2.57 µM (active)

SMILES: C=CCN(CC=C)C(=S)NC(=O)Cc1cccc2ccccc12
IC50 [22]: 31.6 µM (active)

SMILES: O=C(CN(Cc1ccc2c(c1)OCO2)C(=O)CSc1nc2ccccc2o1)NC1CCCCC1
IC50 [24]: 8.58 µM (active)
IC50 [25]: 13.7 µM (not active)
